Converted amounts (≈) assume the structure as drawn.
Tests used:
[1] = biological target: Epithelial Cell Kinase (ECK) (Homo sapiens, UniProt P29317); experiment: Inhibition of Epithelial Cell Kinase (ECK); format: biochemical; details: biotinylated peptide substrate, HRP anti-phosphotyrosine readout, pH 7.2
Protocol: In this standard pharmacological test procedure, a biotinylated peptide substrate is first immobilized on neutravidin-coated microtiter plates. The test drug, the Epithelial Cell Kinase (ECK), Mg^++, sodium vanadate (a protein tyrosine phosphatase inhibitor), and an appropriate buffer to maintain pH (7.2) are then added to the immobilized substrate-containing microtiter wells. ATP is then added to initiate phosphorylation. After incubation, the assay plates are washed with a suitable buffer leaving behind phosphorylated peptide which is exposed to horse radish peroxidase (HRP)-conjugated anti-phosphotyrosine monoclonal antibody. The antibody-treated plates are washed again and the HRP activity in individual wells is quantified as a reflection of degree of substrate phosphorylation. This nonradioactive format was used to identify inhibitors of ECK tyrosine kinase activity where the IC50 is the concentration of drug that inhibits substrate phosphorylation by 50%. Multiple entries for a given compound indication it was tested multiple times.

MDA435 = experiment: Inhibition of cancer cell growth by cell number, MDA435; format: cell-based, Human; details: Homo sapiens, MDA435; 48 hours exposure, Sulforhodamine B
Protocol: (§1) Human tumor cell lines were plated in 96-well plates (250 μl/well, 1-6×10^4 cells/ml) in RPMI 1640 medium, containing 5% FBS (Fetal Bovine Serum). […] After 48 hours exposure to test compounds, cells were fixed with trichloroacetic acid, and stained with Sulforhodamine B. After washing with trichloroacetic acid, bound dye was solubilized in 10 mM Tris base and optical density was determined using a plate reader. Under conditions of the assay the optical density is proportional to the number of cells in the well. IC50s (concentrations causing 50% inhibition of cell growth) were determined from the growth inhibition plots. The test procedure is described in details by Philip Skehan et. at J. Natl. Canc. Inst., 82, 1107-1112 (1990). […] Information about some of the cell lines used in these test procedures is available from the American […]: Cell Lines and Hybridomas, 1994 Reference Guide, 8th Edition. The Her2Neu cell line is a 3T3 line that has bbeen transfected with Her2 receptor kinase.

SW620 = experiment: Inhibition of cancer cell growth by cell number, SW620; format: cell-based, Human; details: Homo sapiens, SW-620; 48 hours exposure, Sulforhodamine B
Protocol: as §1

A2780S = experiment: Inhibition of cancer cell growth by cell number, A2780S; format: cell-based, Human; details: Homo sapiens, A2780S; 48 hours exposure, Sulforhodamine B
Protocol: as §1

A431 = experiment: Inhibition of cancer cell growth by cell number, A431; format: cell-based, Human; details: Homo sapiens, A-431; 48 hours exposure, Sulforhodamine B
Protocol: as §1

A2780DDP = experiment: Inhibition of cancer cell growth by cell number, A2780DDP; format: cell-based, Human; details: Homo sapiens; 48 hours exposure, Sulforhodamine B
Protocol: as §1

SKBR3 = experiment: Inhibition of cancer cell growth by cell number, SKBR3; format: cell-based, Human; details: Homo sapiens, SK-BR-3; 48 hours exposure, Sulforhodamine B
Protocol: as §1

[2] = biological target: T1, epidermal growth factor receptor kinase (EGF-R), His-tagged cytoplasmic domain of EGFR (Homo sapiens, UniProt P00533); experiment: Inhibition of EGF-R kinase using recombinant enzyme; format: biochemical; details: RR-SRC peptide substrate, 33P-ATP, 90 min at room temperature
T1 construct: containing the EGFR cDNA encoding amino acids 645-1186 preceded by Met-Ala-(His)6; made in house; host or cells: Sf9 insect cells, recombinant baculovirus vHcEGFR52
T1 sequence (P00533 669-1210): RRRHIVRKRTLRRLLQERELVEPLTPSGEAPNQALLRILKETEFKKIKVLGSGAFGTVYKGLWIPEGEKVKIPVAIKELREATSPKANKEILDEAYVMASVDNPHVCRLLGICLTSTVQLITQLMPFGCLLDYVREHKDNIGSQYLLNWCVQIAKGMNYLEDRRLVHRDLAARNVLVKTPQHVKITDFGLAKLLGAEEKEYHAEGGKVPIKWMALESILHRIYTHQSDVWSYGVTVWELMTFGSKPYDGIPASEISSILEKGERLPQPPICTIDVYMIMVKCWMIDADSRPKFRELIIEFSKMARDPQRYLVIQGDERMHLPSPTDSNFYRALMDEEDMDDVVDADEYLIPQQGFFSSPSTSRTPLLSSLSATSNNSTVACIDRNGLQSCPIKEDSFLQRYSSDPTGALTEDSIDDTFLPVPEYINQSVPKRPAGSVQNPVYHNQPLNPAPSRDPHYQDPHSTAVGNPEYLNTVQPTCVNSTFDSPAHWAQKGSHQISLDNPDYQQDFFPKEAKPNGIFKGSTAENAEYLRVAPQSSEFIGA
Protocol: Representative test compounds were evaluated for their ability to inhibit the phosphorylation of the tyrosine residue of a peptide substrate catalyzed by the enzyme epidermal growth factor receptor kinase. The peptide substrate (RR-SRC) has the sequence arg-arg-leu-ile-glu-asp-ala-glu-tyr-ala-ala-arg-gly. The enzyme used in this assay is the His-tagged cytoplasmic domain of EGFR. A recombinant baculovirus (vHcEGFR52) was constructed containing the EGFR cDNA encoding amino acids 645-1186 preceded by Met-Ala-(His)6. Sf9 cells in 100 mm plates were infected at an moi of 10 pfu/cell and cells were harvested 48 h post infection. A cytoplasmic extract was prepared using 1% Triton X-100 and applied to Ni-NTA column. After washing the column with 20 mM imidazole, HcEGFR was eluted with 250 mM imidazole (in 50 mM Na2HPO4, pH 8.0, 300 mM NaCl). […]
For the enzyme reaction, 10 uL of each inhibitor (at various concentrations) were added to each well of a 96-well plate. […] The filter discs were washed 2× with 0.5% phosphoric acid and radioactivity was measured using a liquid scintillation counter.
The inhibition data for representative compounds of the invention are shown below in TABLE 1. […] The % inhibition of the test compound was determined for at least three different concentrations and the IC50 value was evaluated from the dose response curve. The % inhibition was evaluated with the following formula: […]

Epithelial Cell Kinase (ECK), sequence (P29317 24-976, species assumed): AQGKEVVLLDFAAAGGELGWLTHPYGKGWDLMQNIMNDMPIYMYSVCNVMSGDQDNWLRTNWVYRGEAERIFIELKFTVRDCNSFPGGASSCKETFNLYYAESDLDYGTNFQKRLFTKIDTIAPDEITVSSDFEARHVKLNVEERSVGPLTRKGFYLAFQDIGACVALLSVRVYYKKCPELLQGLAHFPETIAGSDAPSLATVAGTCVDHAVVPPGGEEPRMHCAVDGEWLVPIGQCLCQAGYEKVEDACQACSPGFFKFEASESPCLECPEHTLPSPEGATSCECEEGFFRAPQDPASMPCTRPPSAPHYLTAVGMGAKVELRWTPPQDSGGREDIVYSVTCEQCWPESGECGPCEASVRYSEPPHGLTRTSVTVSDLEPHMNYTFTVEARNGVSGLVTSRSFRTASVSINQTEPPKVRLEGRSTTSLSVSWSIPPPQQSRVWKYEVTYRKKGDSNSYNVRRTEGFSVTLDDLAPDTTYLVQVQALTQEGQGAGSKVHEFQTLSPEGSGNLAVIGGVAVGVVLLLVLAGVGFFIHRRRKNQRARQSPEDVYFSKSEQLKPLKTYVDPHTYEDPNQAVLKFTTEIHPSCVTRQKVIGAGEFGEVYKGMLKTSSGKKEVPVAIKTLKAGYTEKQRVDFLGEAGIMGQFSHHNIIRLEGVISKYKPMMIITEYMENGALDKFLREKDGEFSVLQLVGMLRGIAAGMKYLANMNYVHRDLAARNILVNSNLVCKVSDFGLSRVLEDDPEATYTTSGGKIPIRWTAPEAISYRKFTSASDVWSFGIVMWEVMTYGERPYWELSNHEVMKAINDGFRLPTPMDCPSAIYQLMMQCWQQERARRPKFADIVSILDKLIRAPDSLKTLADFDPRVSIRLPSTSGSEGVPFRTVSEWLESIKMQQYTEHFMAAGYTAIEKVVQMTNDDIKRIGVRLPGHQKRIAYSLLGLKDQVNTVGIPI

**Q.** Which melting point does the source give for Cc1ccc(Nc2c(C#N)cnc3cnc(F)cc23)cc1O [Example 66, 6-Fluoro-4-(3-hydroxy-4-methyl-phenylamino)-[1,7]naphthyridine-3-carbonitrile] here?
**A.** The melting point was 236 to 239 °C (dec.).

**Q.** And the IC50 [1]?
**A.** Its IC50 is greater than 3300 nM.

**Q.** For N#Cc1cnc2cnc(F)cc2c1Oc1ccc(Cl)cc1F [Example 71, 4-(4-Chloro-2-fluoro-phenoxy)-6-fluoro-[1,7]naphthyridine-3-carbonitrile], which melting point is on record?
**A.** Its melting point is 186 to 188 °C.

**Q.** For CC#CC(=O)Nc1cc2c(Nc3cccc(Br)c3)c(C#N)cnc2cn1 [Example 61, But-2-ynoic Acid, [4-(3-bromo-phenylamino)-3-cyano-[1,7]naphthyridin-6-yl]-amide], which melting point is on record?
**A.** Its melting point is 255 °C (dec.).

**Q.** For N#Cc1cnc2cnc(N)cc2c1Nc1cccc(Br)c1 [Example 59, 6-Amino-4-(3-bromo-phenylamino)-[1,7]naphthyridine-3-carbonitrile], which melting point is on record?
**A.** Its melting point is 185 to 190 °C (dec.).

**Q.** Which melting point does the source give for C[Si](C)(C)C#Cc1cc2c(Nc3cccc(Br)c3)c(C#N)cnc2cn1 [Example 85, 4-(3-Bromo-phenylamino)-6-trimethylsilanylethynyl-[1,7]naphthyridine-3-carbonitrile] here?
**A.** The melting point was 125 °C.

**Q.** And the IC50 (MDA435)?
**A.** The IC50 was 4.2 µg/mL (≈ 9.97 µM).

**Q.** What about the IC50 (SW620) of the same compound?
**A.** The IC50 was 4.72 µg/mL (≈ 11.2 µM).

**Q.** What about the IC50 (A2780S) of the same compound?
**A.** The IC50 was 2.34 µg/mL (≈ 5.56 µM).

**Q.** And the IC50 (A431)?
**A.** The IC50 was 3.06 µg/mL (≈ 7.25 µM).

**Q.** What about the IC50 (A2780DDP) of the same compound?
**A.** Its IC50 is 2.97 µg/mL (≈ 7.05 µM).

**Q.** What about the IC50 (SKBR3) of the same compound?
**A.** The IC50 was 3.59 µg/mL (≈ 8.52 µM).

**Q.** For COc1ccc(CNc2cc3c(Nc4cccc(Br)c4)c(C#N)cnc3cn2)cc1 [Example 58, 4-(3-Bromo-phenylamino)-6-(4-methoxy-benzylamino)-[1,7]naphthyridine-3-carbonitrile], which melting point is on record?
**A.** The melting point was 82 to 86 °C (dec.).

**Q.** For N#Cc1cnc2cnc(F)cc2c1Nc1ccc(F)c(Cl)c1 [Example 69, 4-(3-Chloro-4-fluoro-phenylamino)-6-fluoro-[1,7]naphthyridine-3-carbonitrile], which melting point is on record?
**A.** Its melting point is 108 to 111 °C.

**Q.** Which melting point does the source give for CNc1cc2c(Nc3cccc(Br)c3)c(C#N)cnc2cn1 [Example 64, 4-(3-Bromo-phenylamino)-6-methylamino-[1,7]naphthyridine-3-carbonitrile] here?
**A.** Its melting point is 250 °C (dec.).

**Q.** For CC#CC(=O)Nc1cnc2ncc(C#N)c(Nc3cccc(Br)c3)c2c1 [Example 24, But-2-ynoic Acid [5-(3-bromo-phenylamino)-6-cyano-[1,8]-naphthyridin-3-yl]-amide], which IC50 [1] is on record?
**A.** Its IC50 is less than 40 nM.

**Q.** For N#Cc1cnc2cnc(F)cc2c1Nc1cccc(Br)c1 [Example 57, 4-(3-Bromo-phenylamino)-6-fluoro-[1,7]naphthyridine-3-carbonitrile], which melting point is on record?
**A.** Its melting point is 185 to 195 °C.

**Q.** For N#Cc1cnc2cnc(NCCN3CCOCC3)cc2c1Nc1cccc(Br)c1 [Example 63, 4-(3-Bromo-phenylamino)-6-(2-morpholino-4-yl-ethylamino)-[1,7]naphthyridine-3-carbonitrile], which melting point is on record?
**A.** Its melting point is 80 to 96 °C (dec.).

**Q.** For CC#CC(=O)Nc1cnc2ncc(C#N)c(Nc3ccc(F)c(Cl)c3)c2c1 [Example 27, But-2-ynoic acid [5-(3-chloro-4-fluoro-phenylamino)-6-cyano-[1,8]naphthyridin-3-yl]-amide], which IC50 [2] is on record?
**A.** Its IC50 is greater than 100 nM.

**Q.** For CN(C)CCOc1cc2c(Nc3ccc(F)c(Cl)c3)c(C#N)cnc2cn1 [Example 74, 4-(3-Chloro-4-fluoro-phenylamino)-6-(2-dimethylamino-ethoxy)-[1,7]naphthyridine-3-carbonitrile], which melting point is on record?
**A.** Its melting point is 131 to 132 °C.

**Q.** Which melting point does the source give for N#Cc1cnc2cnc(F)cc2c1Nc1ccc(Oc2ccccc2)cc1 [Example 67, 6-Fluoro-4-(4-phenoxy-phenylamino)-[1,7]naphthyridine-3-carbonitrile] here?
**A.** Its melting point is 211 to 213 °C.

**Q.** With C#Cc1cc2c(Nc3cccc(Br)c3)c(C#N)cnc2cn1 [Example 86, 4-(3-Bromo-phenylamino)-6-ethynyl-[1,7]naphthyridine-3-carbonitrile] as the compound, how does the melting point read?
**A.** The melting point was 224 °C (dec.).

**Q.** With CN(C)CCOc1cc2c(Nc3ccc(Cl)cc3F)c(C#N)cnc2cn1 [Example 76, 4-(4-Chloro-2-fluoro-phenylamino)-6-(2-dimethylamino-ethoxy)-[1,7]naphthyridine-3-carbonitrile] as the compound, how does the melting point read?
**A.** Its melting point is 150 to 152 °C.

**Q.** Which melting point does the source give for N#Cc1cnc2cnc(Cl)cc2c1Nc1cccc(Br)c1 [Example 83, 4-(3-Bromo-phenylamino)-6-chloro-[1,7]naphthyridine-3-carbonitrile] here?
**A.** Its melting point is 220 to 223 °C.

**Q.** Which melting point does the source give for CN(C)CCOc1cc2c(Nc3ccc(Oc4ccccc4)cc3)c(C#N)cnc2cn1 [Example 73, 6-(2-Dimethylamino-ethoxy)4(4-phenoxy-phenylamino)-[1,7]naphthyridine-3-carbonitrile] here?
**A.** The melting point was 159 to 161 °C.

**Q.** For CN(C)CC=CC(=O)Nc1cc2c(Nc3cccc(Br)c3)c(C#N)cnc2cn1 [Example 62, 4-Dimethylamino-but-2-enoic Acid, [4-(3-bromo-phenylamino)-3-cyano-[1,7]naphthyridin-6-yl]-amide], which melting point is on record?
**A.** The melting point was 180 to 185 °C (dec.).

**Q.** What about the IC50 (SW620) of the same compound?
**A.** Its IC50 is 0.356 µg/mL (≈ 0.789 µM).

**Q.** Which melting point does the source give for N#Cc1cnc2cnc(F)cc2c1Nc1ccc(Cl)cc1Cl [Example 68, 4-(2,4-Dichloro-phenylamino)-6-fluoro-[1,7]naphthyridine-3-carbonitrile] here?
**A.** The melting point was 206 to 208 °C.

**Q.** With CN(C)CCOc1cc2c(Nc3cccc(Br)c3)c(C#N)cnc2cn1 [Example 77, 4-(3-Bromo-phenylamino)-6-(2-dimethylamino-ethoxy)-[1,7]naphthyridine-3-carbonitrile] as the compound, how does the melting point read?
**A.** Its melting point is 138 to 139 °C.

**Q.** What about the IC50 [1] of the same compound?
**A.** The IC50 was greater than 2400 nM.

Reference: US6548496B2, “Substituted 3-cyano-[1.7], [1.5], and [1.8] naphthyridine inhibitors of tyrosine kinases” (American Cyanamid Company, priority 1999, dated 2003)
